2 compounds from PubChem BioAssay AID463224 (The Scripps Research Institute Molecular Screening Center, 2010) can be followed below.

This experiment addresses Serine/threonine-protein phosphatase 5 (Homo sapiens) (UniProt P53041). Put plainly: PP5 inhibitor potency, dose response, orthogonal assay for PP5 inhibitor project, biochemical, radiolabel, powder samples (AID 463224). The settings on record: purified PP5c, 33P-phosphohistone dephosphorylation, scintillation.

SMILES strings stand for the structures.

Chain of Serine/threonine-protein phosphatase 5 (Homo sapiens) (P53041 whole entry, looked up): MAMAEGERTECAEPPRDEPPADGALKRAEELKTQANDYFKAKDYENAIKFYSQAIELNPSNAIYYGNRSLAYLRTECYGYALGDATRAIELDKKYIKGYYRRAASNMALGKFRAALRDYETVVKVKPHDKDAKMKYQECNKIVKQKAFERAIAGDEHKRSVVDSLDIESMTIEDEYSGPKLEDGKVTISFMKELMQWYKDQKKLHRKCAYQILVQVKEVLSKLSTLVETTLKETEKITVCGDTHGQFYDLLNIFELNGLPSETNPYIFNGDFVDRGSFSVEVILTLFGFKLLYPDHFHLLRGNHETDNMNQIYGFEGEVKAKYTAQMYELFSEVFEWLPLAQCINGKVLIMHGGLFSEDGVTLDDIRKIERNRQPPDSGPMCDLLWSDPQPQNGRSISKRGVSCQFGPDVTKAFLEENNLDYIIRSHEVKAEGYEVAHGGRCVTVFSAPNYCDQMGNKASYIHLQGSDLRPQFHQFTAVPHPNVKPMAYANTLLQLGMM

`O=C(O)C1C2CCC(O2)C1C(=O)NC1CCCCC1` (configuration not stated): the IC50 was 13.5 µM.
Take `O=C(O)c1n[nH]nc1-c1ccccc1`: the IC50 was 40.6 µM.
